One assay addresses T1, mouse TRPA1 (Mus musculus, UniProt Q8BLA8).
T1 construct: expressed in transfected cells; host or cells: HEK-293T
Put plainly: Ca2+ influx (Calcium 6 fluorescence) in mouse Trpa1-expressing HEK-293T cells. In kind it is cell-based. The protocol: (§1) HEK-293T cells were cultured in DMEM (Thermofisher Scientific, Waltham, Mass.) and supplemented with 10% fetal bovine serum (FBS) (Thermofisher Scientific), penicillin (100 units/mL) and streptomycin (0.1 mg/mL). Cells were plated on 100 mm tissue culture plates coated with poly-D-lysine (Sigma Aldrich, Saint Louis, Mo.) and grown to ˜60% confluence. The cells were transiently transfected for 16-24 hours with either human or mouse orthologs of TRPA1 using Fugene 6 transfection reagents and Opti-MEM (Thermofisher Scientific) according to the manufacturer's protocol. Subsequently, cells were trypsinized, re-suspended and re-plated onto poly-D-lysine coated 96-well plates (Krystal black walled plates, Genesee Scientific) at 5×10^5 cells/mL (100 μL/well) and allowed to grow for another 16-20 hrs prior to the experiments. Cells were maintained as monolayers in a 5% CO2 incubator at 37° C.
(§2) Measurements of changes in intracellular Ca^2+ concentrations ([Ca^2+]i) were performed as described previously (Caceres et al., 2017). In brief, cells in 96-well plates were loaded with Calcium 6, a no-wash fluorescent indicator, for 1.5 hrs (Molecular Devices, San Jose, Calif.) and then transferred to a FlexStation III benchtop scanning fluorometer chamber (Molecular Devices). Fluorescence measurements in the FlexStation were performed at 37° C. (Ex:485 nm, Em: 525 nm at every 1.8 s). After recording baseline fluorescence, agonists (indole, IAld, cinnamaldehyde) were added and fluorescence was monitored for a total of 60 s. […] The change in fluorescence was measured as Fmax-F0, where Fmax is the maximum fluorescence and F0 is the baseline fluorescence measured in each well.

The next assay addresses human TRPA1 (Homo sapiens, UniProt O75762). The experiment in a line: Ca2+ influx (Calcium 6 fluorescence) in human TRPA1 expressing HEK-293T cells. Format: cell-based. The protocol: as §1, §2
Another assay has as its system AhR signaling. The note with it: 2-hour 10 μM and 3-day 0.5 μM treatment; cited from earlier work.
The subject of a further assay is intestinal motility. The experiment in a line: Zebrafish intestinal motility (PIV-Lab velocity analysis). Format: in vivo.
For another assay, the system named is E. tarda. Put plainly: Intestinal E. tarda mCherry accumulation in zebrafish treated with AhR inhibitors. Format: in vivo. The note with it: AhR inhibitor 1 μM or folic acid 10 μM, 3 dpf to 6 dpf. On the procedure: For E. tarda colonization experiments, fertilized zebrafish eggs were collected, sorted and transferred into a cell culture flask containing 80 mL GZM at 0 dpf. At 3 dpf, dead embryos and 60 mL GZM were removed and replaced with 50 mL fresh GZM in each flask. To facilitate consistent commensal gut bacterial colonization, an additional 10 mL of filtered system water (5 μm filter, SLSV025LS, Millipore) were added to each flask. Overnight E. tarda mCherry culture was harvested, washed three times with GZM. 150 μL of GZM-washed E. tarda mCherry culture were inoculated into each flask. The E. tarda concentration is ˜10^6 CFU/ml. […] At 6 dpf, zebrafish larvae were subjected to fluorescence imaging analysis or CFU quantification. For fluorescence imaging analysis, zebrafish larvae were anesthetized with Tricaine ([…]), mounted in 3% methylcellulose and imaged with a Leica M205 FA upright fluorescence stereomicroscope equipped with a Leica DFC 365FX camera. For CFU quantification, digestive tracts were dissected and transferred into 1 mL sterile PBS which was then mechanically disassociated using a Tissue-Tearor (BioSpec Products, 985370). […] The mCherry+ colonies were quantified from each plate and E. tarda colony forming units (CFUs) per fish were calculated. […]

A further assay relates to vagal sensory neurons. The experiment in a line: In vivo calcium imaging of vagal sensory ganglia after microgavage. Details: species or system zebrafish. Conditions: WT; enteric microgavage ~8 nl, AITC 100 mM, indole 1 mM, IAld 1 mM. The protocol: For delivering bacterial or chemicals specifically to the intestine, the established microgavage technique (Cocchiaro and Rawls, 2013) was adopted. Zebrafish were anesthetized with 1 mg/mL α-Bungarotoxin (α-BTX) and the gavage procedure was performed as previously described using microinjection station (Cocchiaro and Rawls, 2013). For bacteria gavage experiments, 1 ml of overnight bacterial culture was harvested, pelleted, washed with PBS and resuspended in 100 ul PBS.˜8 nl was then delivered into the zebrafish intestine using microgavage. The gavaged zebrafish was then transferred into egg water and mounted in 1% LMA for imaging. For chemical gavage experiments, ˜8 nl of AITC (100 mM), indole (1 mM) and IAld (1 mM) was gavaged into the intestine.
Tg(neurod1:Gcamp6f); Tg(neurod1:TagRFP) zebrafish were used to record vagal sensory ganglia calcium activity in vivo. Zebrafish were anesthetized with 1 mg/mL α-Bungarotoxin (α-BTX) and gavaged with chemical compounds or bacteria as described (Naumann et al., 2016). Zebrafish larvae were mounted in 1% LMA and imaged under a Zeiss 780 upright confocal microscope. Z-stack images of the entire vagal ganglia were collected as serial images at 10 mins/frame and processed in FIJI. Individual vagal sensory neurons were identified and the Gcamp6f to TagRFP fluorescence ratios of individual vagal sensory neurons were calculated.

For a further assay, the system named is zebrafish EECs (Trpa1). The experiment in a line: In vivo EEC calcium, Tg(neurod1:Gcamp6f) zebrafish. The protocol:
To record in vivo EEC activity using the Tg(neurod1:Gcamp6f) system, a published protocol with slight modification (Ye et al., 2019) was used. In brief, unanesthetized zebrafish larvae were gently mounted in 3% methylcellulose. Excess water was removed and zebrafish larvae were gently positioned with right side up. Zebrafish were then moved onto an upright Leica M205 FA fluorescence stereomicroscope equipped with a Leica DFC 365FX camera. The zebrafish larvae were allowed to recover for 2 mins before 100 μL of test agent was pipetted directly in front of the mouth region. Images were then recorded every 10 seconds. The data shown in FIG. 2O-R, depicting the EEC responses to E. tarda stimulation, were obtained by mounting unanesthetized zebrafish larvae in 1% low melting agarose. A window (5×5 mm) was cut to expose the head region of the zebrafish. 10 μL of E. tarda culture [˜10^9 Colony Forming Unit (CFU)] were delivered at the zebrafish mouth area. Images were recorded every 10 secs for 20 mins. Image processing and analysis were performed using FIJI software. Time-lapse fluorescence images were first aligned to correct for experimental drift using the plugin “align slices in stack.” Normalized correlation coefficient matching and bilinear interpolation methods for subpixel translation were used for aligning slices (Tseng et al., 2012). The plugin “rolling ball background subtraction” with the rolling ball radius=10 pixels was used to remove the large spatial variation of background intensities. The Gcamp6f fluorescence intensity in the intestinal region was then calculated for each time point. The ratio of maximum fluorescence (Fmax) and the initial fluorescence (F0) was used to measure EEC calcium responses.
For EEC Trpa1 activation using the Optovin platform, zebrafish larvae were treated with 10 μM Optovin overnight. Following Optovin treatment, unanesthetized zebrafish were mounted in 1% LMA and imaged under a 780 upright Zeiss confocal microscope using 20× water objective lenses. For all the experiments, the mid-intestine region was imaged (FIG. 10D). The intestinal epithelium was selected as the region of interest (ROI) (FIG. 10A). Serial images were obtained at 1 s/frame. A 405 nm pulse of light was applied to the ROI at 1 pulse/10 s. For some experiments (FIG. 7D-F, FIG. 10B-G), the images were obtained at 10 s/frame. When measuring Optovin effects on intestinal motility in ret−/−, sox10−/− or tph1b−/− zebrafish larvae, embryos were collected from heterozygous zebrafish. ret−/− zebrafish were identified by lack of ENS and deflated swim bladder (Knight et al., 2011), sox10−/− zebrafish were identified by lack of pigment (Rolig et al., 2017), and tph1b−/− zebrafish were identified by PCR-based genotyping (Tornini et al., 2017).
To determine whether Optovin-UV or ChR2 was sufficient to activate EECs, Tg(neurod1:Gcamp6f) zebrafish were used. […] The Gcamp6f signal was recorded with 488 nm laser intensity less than 0.5. The zebrafish intestinal motility is quantified through recorded image series of zebrafish intestine using the method similar as previously described (Ganz et al., 2018). […] When calculating the mean velocity, only the mean velocity magnitude was calculated, which therefore doesn't account for the movement direction. The MTrackJ FIJI plugin was used to quantify the mean velocity magnitude (Meijering et al., 2012).

The structures appear in SMILES notation.

T1 sequence (Q8BLA8 whole entry): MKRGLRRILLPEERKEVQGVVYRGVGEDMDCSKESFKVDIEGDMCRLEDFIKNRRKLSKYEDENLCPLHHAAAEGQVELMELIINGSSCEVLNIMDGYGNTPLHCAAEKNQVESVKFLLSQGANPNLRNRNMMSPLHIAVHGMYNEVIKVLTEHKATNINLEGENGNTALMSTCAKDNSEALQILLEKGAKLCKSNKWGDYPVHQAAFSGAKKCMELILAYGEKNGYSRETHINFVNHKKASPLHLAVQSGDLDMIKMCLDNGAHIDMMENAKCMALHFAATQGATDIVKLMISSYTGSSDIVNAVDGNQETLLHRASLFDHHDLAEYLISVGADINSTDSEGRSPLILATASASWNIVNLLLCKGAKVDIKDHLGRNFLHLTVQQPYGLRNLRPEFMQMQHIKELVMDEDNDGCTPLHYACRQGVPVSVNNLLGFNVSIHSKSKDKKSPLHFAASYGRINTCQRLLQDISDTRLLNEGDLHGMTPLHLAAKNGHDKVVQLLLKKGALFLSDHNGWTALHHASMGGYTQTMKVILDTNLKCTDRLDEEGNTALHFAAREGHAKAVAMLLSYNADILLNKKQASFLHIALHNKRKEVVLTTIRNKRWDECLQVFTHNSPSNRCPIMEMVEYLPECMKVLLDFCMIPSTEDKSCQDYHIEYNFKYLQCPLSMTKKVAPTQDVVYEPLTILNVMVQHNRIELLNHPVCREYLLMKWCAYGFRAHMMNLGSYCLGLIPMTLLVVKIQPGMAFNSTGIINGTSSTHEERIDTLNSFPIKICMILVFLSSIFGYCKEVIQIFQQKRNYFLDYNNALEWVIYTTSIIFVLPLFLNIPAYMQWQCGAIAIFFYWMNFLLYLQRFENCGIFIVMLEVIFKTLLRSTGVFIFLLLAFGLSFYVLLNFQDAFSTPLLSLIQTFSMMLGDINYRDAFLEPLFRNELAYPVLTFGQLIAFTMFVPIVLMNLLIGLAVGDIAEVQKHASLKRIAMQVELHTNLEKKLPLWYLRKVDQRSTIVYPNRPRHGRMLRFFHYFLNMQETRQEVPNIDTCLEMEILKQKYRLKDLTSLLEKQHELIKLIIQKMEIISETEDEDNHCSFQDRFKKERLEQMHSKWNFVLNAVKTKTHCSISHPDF
human TRPA1, sequence (O75762 whole entry): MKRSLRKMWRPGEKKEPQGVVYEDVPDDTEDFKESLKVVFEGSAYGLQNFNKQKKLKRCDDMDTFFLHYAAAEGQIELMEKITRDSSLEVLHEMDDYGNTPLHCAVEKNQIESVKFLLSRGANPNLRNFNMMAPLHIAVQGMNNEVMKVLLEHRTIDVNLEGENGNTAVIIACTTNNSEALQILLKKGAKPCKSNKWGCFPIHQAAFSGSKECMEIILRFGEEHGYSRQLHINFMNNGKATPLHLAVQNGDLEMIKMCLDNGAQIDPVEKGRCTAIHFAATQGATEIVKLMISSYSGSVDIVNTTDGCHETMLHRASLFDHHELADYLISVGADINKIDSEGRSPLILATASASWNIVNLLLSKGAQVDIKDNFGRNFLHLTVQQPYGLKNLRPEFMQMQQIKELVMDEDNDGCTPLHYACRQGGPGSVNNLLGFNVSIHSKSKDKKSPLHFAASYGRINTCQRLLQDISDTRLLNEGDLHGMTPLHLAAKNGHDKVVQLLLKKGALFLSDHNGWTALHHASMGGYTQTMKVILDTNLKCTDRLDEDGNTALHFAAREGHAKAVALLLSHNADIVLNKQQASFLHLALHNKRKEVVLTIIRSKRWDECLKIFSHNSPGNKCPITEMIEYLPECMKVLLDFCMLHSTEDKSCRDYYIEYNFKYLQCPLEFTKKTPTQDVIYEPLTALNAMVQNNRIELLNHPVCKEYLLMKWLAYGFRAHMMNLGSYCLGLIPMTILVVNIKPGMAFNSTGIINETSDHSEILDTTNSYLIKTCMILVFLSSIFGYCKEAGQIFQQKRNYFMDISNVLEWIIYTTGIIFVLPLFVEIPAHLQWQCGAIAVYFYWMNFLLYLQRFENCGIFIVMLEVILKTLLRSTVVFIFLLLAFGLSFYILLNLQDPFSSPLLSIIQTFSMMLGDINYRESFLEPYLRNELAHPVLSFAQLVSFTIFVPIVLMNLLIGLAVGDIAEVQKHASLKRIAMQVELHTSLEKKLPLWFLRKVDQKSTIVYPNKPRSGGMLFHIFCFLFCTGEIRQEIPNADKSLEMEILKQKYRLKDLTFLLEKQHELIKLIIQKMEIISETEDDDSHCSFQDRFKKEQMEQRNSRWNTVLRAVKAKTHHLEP
Source text for intestinal motility: The zebrafish intestinal motility is quantified through recorded image series of zebrafish intestine using the method similar as previously described (Ganz et al., 2018). Intestinal p velocity and v velocity were used to estimate intestinal motility in zebrafish as previously described using the PIV-Lab MATLAB app (Ganz et al., 2018). A positive value of the μ velocity indicates an anterograde intestinal movement and a negative value of the μ velocity indicates a retrograde intestinal movement. The time-course p velocity number is plotted as heatmaps. When calculating the mean velocity, only the mean velocity magnitude was calculated, which therefore doesn't account for the movement direction. The MTrackJ FIJI plugin was used to quantify the mean velocity magnitude (Meijering et al., 2012).

In the case of `CCC(=N\O)/C(C)=C/c1ccc(F)cc1` [A967079], the “Effect on indole- and IAld-induced mouse Trpa1 activation” value at mouse TRPA1 (mouse) is recorded as “blocked”. The IC50 – broadly, the concentration at which inhibition is half-maximal – on mouse TRPA1 (mouse Trpa1-expressing HEK-293T cells, normalized to 100 μM Indole) is 0.315 µM. Also, the “Effect on indole- and IAld-induced human Trpa1 activation” value on human TRPA1 (human) is recorded as “blocked”.
In the case of `Cc1ccccc1N=Nc1ccc(NC(=O)c2ccnn2C)c(C)c1` [CH223191], the “Inhibition of larvae zebrafish AhR signaling” value in the assay with AhR signaling is recorded as “sufficient to inhibit”. Also, in the assay on intestinal motility (AhR inhibitor 10 μM or folic acid 10 μM for 2 hours), the “Effect on Optovin-UV induced intestinal motility change” value is reported as “insufficient to block”. The “Effect on E. tarda intestinal accumulation” value in the assay on E. tarda is listed as “insufficient to block”.
Regarding `O=Cc1c[nH]c2ccccc12` [IAld, indole-3-carboxaldehyde], in the assay on vagal sensory neurons, the “Gcamp6f fluorescence in a subset of vagal sensory neurons” value is listed as “increased”. The “Activation of mouse Trpa1” value at mouse TRPA1 (compared with human TRPA1) is “activated mouse Trpa1, but in a less potent manner”. The EC50 at mouse TRPA1 (mouse TRPA1, normalized to 1 mM cinnamaldehyde (CAD), read-out: EC50, dose-response effects on mouse TRPA1) came to 189 µM; on human TRPA1 (human TRPA1 expressing HEK-293T cells, normalized to 1 mM cinnamaldehyde (CAD), read-out: EC50, integrated Calcium 6 fluorescence response above baseline (Fmax-F0; maximal change in Ca2+ influx)), 77.7 µM. For the same compound, the “Activation of human TRPA1 receptor transfected into HEK cells” value on human TRPA1 was “activated”. Moreover, the TRPA1 agonist efficacy entry at human TRPA1 (efficiency comparable to cinnamaldehyde (CAD)) is on record as “full TRPA1 agonist activity”. Moreover, in the assay with zebrafish EECs (Trpa1) (trpa1b-dependent), the “Zebrafish EEC activation (Gcamp6f fluorescence)” value was “strongly activated”.
On to `Cc1cc(/C=C2/SC(=S)NC2=O)c(C)n1-c1cccnc1` [Optovin], for which, in the assay with intestinal motility (EEC-ablated zebrafish), the “Intestinal motility after Optovin treatment and UV activation” value is reported as “failed to induce intestinal motility”. Further, the “Velocity of intestinal motility after Optovin-UV Trpa1 activation” value with intestinal motility (WT larvae, middle intestine) is recorded as “increased”. Besides, the “EEC [Ca2+]i (Gcamp6f fluorescence) after UV light activation” value in the assay with zebrafish EECs (Trpa1) (WT larvae pretreated with Optovin 10 μM overnight, 405 nm) is listed as “significantly increased”. In addition, the “EEC [Ca2+]i after UV light exposure” value with zebrafish EECs (Trpa1) (trpa1b−/− larvae pretreated with Optovin) is given as “did not increase”.
